Article PMC11898290, “TFEB promotes Ginkgetin-induced ferroptosis via TRIM25 mediated GPX4 lysosomal degradation in EGFR wide-type lung adenocarcinoma” (Theranostics, 2025)

Experiments:
TFEB = target: T1, TFEB (Homo sapiens, UniProt P19484); experiment: SPR, Biacore S200, CM5 chip, steady-state fit; format: binding; settings: 10 mM HEPES pH 7.4, 150 mM NaCl, 0.05% P20, 2% DMSO, 25 °C; GK 0.137-100 µM
T1 construct: TFEB protein amine-coupled on CM5 chip (about 6500 RU)
T1 sequence (P19484 1-476): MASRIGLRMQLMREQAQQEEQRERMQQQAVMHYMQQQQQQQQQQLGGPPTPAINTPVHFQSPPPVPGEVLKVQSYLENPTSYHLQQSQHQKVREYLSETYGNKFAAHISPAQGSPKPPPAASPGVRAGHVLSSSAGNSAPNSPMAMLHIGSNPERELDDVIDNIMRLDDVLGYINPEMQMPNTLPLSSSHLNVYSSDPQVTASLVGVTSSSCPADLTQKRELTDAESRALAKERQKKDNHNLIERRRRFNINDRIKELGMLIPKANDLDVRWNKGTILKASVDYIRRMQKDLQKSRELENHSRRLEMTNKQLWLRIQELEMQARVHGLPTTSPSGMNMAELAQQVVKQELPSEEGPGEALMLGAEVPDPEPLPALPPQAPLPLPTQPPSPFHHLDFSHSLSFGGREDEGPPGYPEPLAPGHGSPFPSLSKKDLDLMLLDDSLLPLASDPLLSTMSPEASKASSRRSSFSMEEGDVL

[1] = target: T2, TFEB-GFP (pcDNA3.1-TFEB-GFP) (Homo sapiens, UniProt P19484); experiment: microscale thermophoresis, GFP-fusion in cell lysate; format: binding
T2 sequence (P19484 1-476): T1 sequence (P19484 1-476)

- Kd [1]: 28 µM
Structure (SMILES): COc1cc(O)c2c(=O)cc(-c3ccc(OC)c(-c4c(O)cc(O)c5c(=O)cc(-c6ccc(O)cc6)oc45)c3)oc2c1 [ginkgetin]
- Kd (TFEB): The binding affinity of GK to TFEB was determined by the SPR assay.
